The results in this text go back to US8524194B2, “Radiolabelled MMP selective compounds” (Academisch Medisch Centrum Bij de Universiteit van Amsterdam, priority 2008, dated 2013).

For one data set, the target named is T1, MMP-2 (Homo sapiens, UniProt P08253).
T1 sequence (P08253 110-660): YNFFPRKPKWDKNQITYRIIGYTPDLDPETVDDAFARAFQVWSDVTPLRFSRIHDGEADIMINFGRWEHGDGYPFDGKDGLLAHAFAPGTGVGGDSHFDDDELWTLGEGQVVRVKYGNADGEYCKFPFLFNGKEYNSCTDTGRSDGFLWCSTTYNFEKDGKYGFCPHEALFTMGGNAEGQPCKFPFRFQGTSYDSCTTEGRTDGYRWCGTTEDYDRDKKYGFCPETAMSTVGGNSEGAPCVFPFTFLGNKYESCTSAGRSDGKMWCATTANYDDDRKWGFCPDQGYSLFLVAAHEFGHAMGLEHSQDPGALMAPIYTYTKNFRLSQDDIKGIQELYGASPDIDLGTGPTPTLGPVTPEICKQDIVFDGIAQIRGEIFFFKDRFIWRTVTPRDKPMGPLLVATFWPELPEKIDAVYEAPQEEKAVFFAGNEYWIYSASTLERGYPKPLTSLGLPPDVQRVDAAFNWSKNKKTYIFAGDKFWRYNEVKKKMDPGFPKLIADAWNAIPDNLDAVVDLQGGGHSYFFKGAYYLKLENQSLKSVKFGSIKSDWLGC
Kind of data set: in vitro MMP inhibition, MMP-2. Type of data set: biochemical. The conditions noted are these: preliminary results.

A further data set addresses MMP-9 (Homo sapiens, UniProt P14780). Kind of data set: in vitro MMP inhibition, MMP-9. The data set is classed as biochemical. The note with it: preliminary results.
A further data set concerns the target T2, MMP-1 (Homo sapiens, UniProt P03956).
T2 sequence (P03956 100-469): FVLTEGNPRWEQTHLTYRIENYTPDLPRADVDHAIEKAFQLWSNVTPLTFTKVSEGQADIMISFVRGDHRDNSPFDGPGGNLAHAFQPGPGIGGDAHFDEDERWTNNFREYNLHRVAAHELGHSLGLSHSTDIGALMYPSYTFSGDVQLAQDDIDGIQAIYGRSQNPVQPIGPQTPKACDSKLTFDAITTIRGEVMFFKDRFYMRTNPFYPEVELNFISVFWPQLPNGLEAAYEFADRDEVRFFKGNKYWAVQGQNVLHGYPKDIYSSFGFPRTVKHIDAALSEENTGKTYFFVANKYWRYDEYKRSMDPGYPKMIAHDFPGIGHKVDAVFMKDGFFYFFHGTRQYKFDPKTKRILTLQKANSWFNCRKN
Kind of data set: in vitro MMP inhibition, MMP-1. Type of data set: biochemical. The conditions noted are these: preliminary results.

Data set [1] concerns atherosclerotic plaques (MMP-2). The experiment in a line: binding to atherosclerotic plaques in the aortic sinus, storage phosphor imaging. The data set is classed as in vivo. The conditions noted are these: ApoE−/− mice on Western Type diet, i.v., three hours after injection, FIG. 3.
Procedure: Four month old ApoE−/− mice were given a Western Type diet (cat nr. 4021.06; Arie Blok Diervoeding, Woerden, the Netherlands), during one month to stimulate atherogenesis. On the last day of the experiment the radiolabeled MMP-2 antagonist was given by intravenous injection. Three hours after injection, the mice were harvested and the aortic sinus area was analysed overnight using a storage phosphor imaging technique for binding of the MMP2 antagonist.
The nature of data set [2]: tissue biodistribution after intravenous administration. The data set is classed as in vivo, CL57/BL6 mice. The conditions noted are these: i.v. On the procedure:
Because the in vitro studies gave promising results, preliminary in vivo studies were performed using the CL57/BL6 mice (8 weeks old). The tissue distribution of [^123I]8 (which is representative for the radioisotopes with alternative halogens), after intravenous administration, was determined at three time points. […] This is regular pharmacokinetic behaviour of a radiotracer.
The extended biodistribution studies were performed using the CL57/BL6 mice (8 weeks old). Here the tissue distribution of [^123I]8, after intravenous administration was determined at 9 time points (up to 24 hours p.i.).

Setting [3] is: CL57/BL6 mice 8 weeks old, three time points, FIG. 1.

MMP-9, sequence (P14780 94-707, species assumed): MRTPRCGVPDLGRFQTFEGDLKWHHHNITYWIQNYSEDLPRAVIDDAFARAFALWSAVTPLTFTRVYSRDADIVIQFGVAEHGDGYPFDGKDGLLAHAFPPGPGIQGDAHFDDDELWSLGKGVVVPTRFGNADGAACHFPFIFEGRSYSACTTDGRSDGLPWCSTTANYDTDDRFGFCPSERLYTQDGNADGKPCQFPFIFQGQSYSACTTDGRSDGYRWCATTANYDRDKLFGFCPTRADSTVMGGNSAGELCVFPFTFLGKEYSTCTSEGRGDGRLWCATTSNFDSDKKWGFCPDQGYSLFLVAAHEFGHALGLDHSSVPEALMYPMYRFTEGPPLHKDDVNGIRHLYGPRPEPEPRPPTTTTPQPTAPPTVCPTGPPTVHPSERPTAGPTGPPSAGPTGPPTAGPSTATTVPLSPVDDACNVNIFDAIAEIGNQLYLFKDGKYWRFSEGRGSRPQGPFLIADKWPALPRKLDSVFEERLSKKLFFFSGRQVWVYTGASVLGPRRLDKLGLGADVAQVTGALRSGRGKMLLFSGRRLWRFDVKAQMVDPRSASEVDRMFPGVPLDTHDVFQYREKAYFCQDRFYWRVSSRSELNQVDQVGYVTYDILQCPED

Usually IC50 stands for the concentration at which inhibition is half-maximal. The low end stands for greater potency in that assay, the high end for weaker potency in that assay. Take `O=C(O)CN(CC(=O)NO)S(=O)(=O)c1ccc(Oc2ccccc2)cc1` [Compound 6a, {[4-Phenoxy-benzenesulphonyl]-hydroxycarbamoylmethyl-amino}-acetic acid]: the IC50 against MMP-2 amounted to 1.89 ± 1.11 nM; against MMP-9, 4.31 ± 2.06 nM; on MMP-1, 1670 ± 980 nM.
Take `O=C(O)CN(CC(=O)NO)S(=O)(=O)c1ccc(Oc2ccc(F)cc2)cc1` [Compound 6b, {[4-(4-Fluoro-phenoxy)-benzenesulphonyl]-hydroxycarbamoylmethyl-amino}-acetic acid]: the IC50 at MMP-2 is 0.13 ± 0.03 nM; at MMP-9, 0.27 ± 0.15 nM; against MMP-1, 4690 ± 2220 nM.
The corresponding values for `O=C(O)CN(CC(=O)NO)S(=O)(=O)c1ccc(Oc2ccc(Br)cc2)cc1` [Compound 6d, {[4-(4-Bromo-phenoxy)-benzenesulphonyl]-hydroxycarbamoylmethyl-amino}-acetic acid] are 0.87 ± 0.4 nM, 1.95 ± 1.1 nM and 910 ± 560 nM.
Consider `O=C(O)CN(CC(=O)NO)S(=O)(=O)c1ccc(Oc2ccc(I)cc2)cc1` [Compound 6e, {[4-(4-Iodo-phenoxy)-benzenesulphonyl]-hydroxycarbamoylmethyl-amino}-acetic acid], for which the IC50 against MMP-2 worked out at 7.64 ± 1.43 nM; on MMP-9 it was 1.61 ± 1.41 nM; against MMP-1, 1320 ± 790 nM.
Regarding `O=C(O)CN(CC(=O)NO)S(=O)(=O)c1ccc(Oc2ccc([123I])cc2)cc1` [[^123I]8, {[4-(4-[^123I]Iodophenoxy)-benzenesulphonyl]-hydroxycarbamoylmethyl-amino}-acetic acid], the “radioactivity in the aortic sinus” value in data set [1] was “Increased radioactivity was observed in the aortic sinus of the heart”. Besides, in data set [2] (setting [3]), the liver uptake result is recorded as “taken up intensively into the liver”, the route of excretion entry was “excreted mainly via the urinary tract” and the “thyroid uptake (de-iodination in vivo)” value is reported as “very low uptake in the thyroid”. Besides, the “re-uptake in liver and kidney” value in data set [2] (CL57/BL6 mice, 9 time points up to 24 hours p.i., FIG. 2) was “A little re-uptake was observed in the liver and kidney after 3 and 6 hours respectively”.
